Reference: patent US8828971B2, “Galactose-pronged carbohydrate compounds for the treatment of diabetic nephropathy and associated disorders” (Galectin Therapeutics, Inc., priority 2012, dated 2014)

Columns and labels:
[1] = tested on: mouse model of diabetic nephropathy; assay: PAS stained kidney sections, mouse model of diabetic nephropathy; type: in vivo; details: diabetic mice, IV 40 mg/kg three times weekly for four weeks
Experimental: (§1) Shown are low (×200) and high magnification (×400) pictures of the three experimental groups: 1) Normal mouse; 2) Diabetic mice treated with vehicle (phosphate buffered saline, treatment control); and 3) Diabetic mice treated with GR-MD-02/001 B (IV 40 mg/kg). The arrows point to a glomerulus.
(§2) The experimental model used in this example is the mouse in which diabetes was induced and a high fat diet was administered. Diabetes was induced immediately following birth with a single injection of streptozotocin. Four weeks later the mice were started on a high fat diet.
(§3) Diabetic mice were treated either with vehicle (phosphate buffered saline) or GR-MD-02/001B given intravenously in a dose of 40 mg/kg three times weekly for four weeks total. There were eight (8) mice in each group. Two normal mice were also utilized as a comparison group.
The diabetic mice had clear histological evidence of diabetic nephropathy as shown in pictures of PAS stained kidney sections in FIG. 1. […] In the vehicle treated control animals there is a clear increase in mesangial basement membrane material (the pink extracellular matrix) over the normal animals.

[2] = tested on: mouse model of diabetic nephropathy; assay: Sirius red stained kidney sections with digital morphometry, mouse model of diabetic nephropathy; type: in vivo; details: diabetic mice, IV 40 mg/kg three times weekly for four weeks; for Sirius red staining (interstitial collagen between renal tubules), histological appearance: FIG. 2, 40 mg/kg
Experimental: as §1, with “(×50)” for “(×200)”, “(×200)” for “(×400)”, “stained strand that indicates the presence of collagen type.” for “glomerulus.”
Statistical comparisons of the percent Sirius red staining shown for the three experimental groups: 1) Normal mouse; 2) Diabetic mice treated with vehicle (phosphate buffered saline, treatment control); and 3) Diabetic mice treated with GR-MD-02/001 B (IV 40 mg/kg).
as §2, §3
Sirius red reagent is used as a stain to evaluate the increase in extracellular matrix material in the interstitium between tubular cells. Minimal red staining is seen in the normal animals. However, there is an increase in staining seen in the vehicle treated control animals.
Thirty two (32) separate slides from each group were blindly evaluated by quantitative digital morphometry for the percent staining with Sirius red.

galactoarabino-rhamnogalacturonate [GR-MD-02/001B]
Mesangial extracellular matrix material (PAS stain, glomerulus) compared to vehicle treated control animals ([1]; FIG. 1): marked decrease | Mesangial extracellular matrix material (PAS stain, glomerulus) compared to vehicle treated control animals ([1]; FIG. 1, listed as GR-MD02/001B): reduced the mesangial expansion of extracellular matrix | Percent Sirius red staining by quantitative digital morphometry compared to vehicle treated controls ([2]; 32 slides per group, levels nearly the same as normal mice, FIG. 3): statistically significant decrease | Sirius red staining (interstitial collagen between renal tubules), histological appearance [2]: marked reduction | Sirius red staining (interstitial collagen between renal tubules), histological appearance ([2]; listed as GR-MD02/001B): reduced the deposition of matrix
